Test results taken from patent US12077503B2, “Substituted cyclic amides and their use as herbicides” (FMC CORPORATION, priority 2015, dated 2024).

Experiments:
Type in all cases: in vivo
[1] = test system: barnyardgrass (Echinochloa crus-galli); experiment: Test G Pre-Emergence Protocol; conditions: Echinochloa crus-galli, pre-emergence, 312 h, evaluated after 13 days; for pest or weed control at 15.625 g/ha: 15.625 g ai/ha, read-out: Barnyard grass damage rating (100=total damage to plant; 0=no damage to plant); for pest or weed control at 62.5 g/ha: 62.5 g ai/ha, 100=total damage to plant, 0=no damage to plant, read-out: plant damage rating, Barnyardgrass; for pest or weed control at 250 g/ha: 250 g ai/ha, read-out: Barnyardgrass damage rating (100=total damage to plant; 0=no damage to plant)
Method in brief: (§1)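 Pots of seeds in standard soil were grown for one day in a glasshouse (24/16 °C day/night, 14 h light, 65% humidity), then sprayed with compound in acetone/water 50:50 with 0.5% Tween 20 at 15.625, 62.5 or 250 g/ha. Damage was scored after 13 days on a 0 (none) to 100 (total) scale.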

corn (Zea mays) [2] = experiment: Test G Pre-Emergence Protocol; conditions: Zea mays, pre-emergence, 312 h, evaluated after 13 days; for plant injury at 15.625 g/ha: 15.625 g ai/ha; for plant injury at 15.625 g/ha / plant injury at 250 g/ha: read-out: Corn damage rating (100=total damage to plant; 0=no damage to plant); for plant injury at 62.5 g/ha: 62.5 g ai/ha, 100=total damage to plant, 0=no damage to plant, read-out: plant damage rating, Corn; for plant injury at 250 g/ha: 250 g ai/ha
Method in brief: as §1

[3] = test system: giant foxtail (Setaria faberi); experiment: Test G Pre-Emergence Protocol; conditions: Setaria faberi, pre-emergence, 312 h, evaluated after 13 days; for pest or weed control at 15.625 g/ha: 15.625 g ai/ha; for pest or weed control at 15.625 g/ha / pest or weed control at 250 g/ha: read-out: Foxtail, Giant damage rating (100=total damage to plant; 0=no damage to plant); for pest or weed control at 62.5 g/ha: 62.5 g ai/ha, 100=total damage to plant, 0=no damage to plant, read-out: plant damage rating, Foxtail, Giant; for pest or weed control at 250 g/ha: 250 g ai/ha
Method in brief: as §1

[4] = test system: ivy-leaved morning glory (Ipomoea hederacea); experiment: Test G Pre-Emergence Protocol; conditions: Ipomoea, pre-emergence, 312 h, evaluated after 13 days; for pest or weed control at 15.625 g/ha: 15.625 g ai/ha, read-out: Morning-glory, Ivy-leaved damage rating (100=total damage to plant; 0=no damage to plant); for pest or weed control at 62.5 g/ha: 62.5 g ai/ha, 100=total damage to plant, 0=no damage to plant, read-out: plant damage rating, Morningglory, Ivy-leaved; for pest or weed control at 250 g/ha: 250 g ai/ha, read-out: Morningglory, Ivy-leaved damage rating (100=total damage to plant; 0=no damage to plant)
Method in brief: as §1

[5] = test system: redroot pigweed (Amaranthus retroflexus); experiment: Test G Pre-Emergence Protocol; conditions: Amaranthus retroflexus, pre-emergence, 312 h, evaluated after 13 days; for pest or weed control at 15.625 g/ha: 15.625 g ai/ha; for pest or weed control at 15.625 g/ha / pest or weed control at 250 g/ha: read-out: Pigweed, Redroot damage rating (100=total damage to plant; 0=no damage to plant); for pest or weed control at 62.5 g/ha: 62.5 g ai/ha, 100=total damage to plant, 0=no damage to plant, read-out: plant damage rating, Pigweed, Redroot; for pest or weed control at 250 g/ha: 250 g ai/ha
Method in brief: as §1

[6] = test system: velvetleaf (Abutilon theophrasti); experiment: Test G Pre-Emergence Protocol; conditions: Abutilon theophrasti, pre-emergence, 312 h, evaluated after 13 days; for pest or weed control at 15.625 g/ha: 15.625 g ai/ha; for pest or weed control at 15.625 g/ha / pest or weed control at 250 g/ha: read-out: Velvetleaf damage rating (100=total damage to plant; 0=no damage to plant); for pest or weed control at 62.5 g/ha: 62.5 g ai/ha, 100=total damage to plant, 0=no damage to plant, read-out: plant damage rating, Velvetleaf; for pest or weed control at 250 g/ha: 250 g ai/ha
Method in brief: as §1

[7] = test system: barnyardgrass (Echinochloa crus-galli); experiment: Test G Post-Emergence Protocol; conditions: Echinochloa crus-galli, post-emergence, 312 h; for pest or weed control at 15.625 g/ha: 15.625 g ai/ha, evaluated after 13 days (100=total damage to plant; 0=no damage to plant), read-out: Barnyardgrass damage rating; for pest or weed control at 62.5 g/ha: 62.5 g ai/ha, read-out: Barnyardgrass damage rating (100=total damage to plant; 0=no damage to plant); for pest or weed control at 62.5 g/ha / pest or weed control at 250 g/ha: evaluated after 13 days; for pest or weed control at 250 g/ha: 250 g ai/ha, read-out: damage to plant, Barnyardgrass (100=total damage to plant; 0=no damage to plant)
Method in brief: (§2)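 A glasshouse post-emergence test: 8-day-old plants sprayed at 15.625, 62.5 or 250 g/ha, then grown at 24/16 °C day/night with 14 h light and 65% humidity. Damage rated 13 days later, 0–100.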

corn (Zea mays) [8] = experiment: Test G Post-Emergence Protocol; conditions: Zea mays, post-emergence, 312 h; for plant injury at 15.625 g/ha: 15.625 g ai/ha, evaluated after 13 days (100=total damage to plant; 0=no damage to plant), read-out: Corn damage rating; for plant injury at 62.5 g/ha: 62.5 g ai/ha, read-out: Corn damage rating (100=total damage to plant; 0=no damage to plant); for plant injury at 62.5 g/ha / plant injury at 250 g/ha: evaluated after 13 days; for plant injury at 250 g/ha: 250 g ai/ha, read-out: damage to plant, Corn (100=total damage to plant; 0=no damage to plant)
Method in brief: as §2

[9] = test system: giant foxtail (Setaria faberi); experiment: Test G Post-Emergence Protocol; conditions: Setaria faberi, post-emergence, 312 h; for pest or weed control at 15.625 g/ha: 15.625 g ai/ha, evaluated after 13 days (100=total damage to plant; 0=no damage to plant), read-out: Foxtail, Giant damage rating; for pest or weed control at 62.5 g/ha: 62.5 g ai/ha, read-out: Foxtail, Giant damage rating (100=total damage to plant; 0=no damage to plant); for pest or weed control at 62.5 g/ha / pest or weed control at 250 g/ha: evaluated after 13 days; for pest or weed control at 250 g/ha: 250 g ai/ha, read-out: damage to plant, Foxtail, Giant (100=total damage to plant; 0=no damage to plant)
Method in brief: as §2

[10] = test system: ivy-leaved morning glory (Ipomoea hederacea); experiment: Test G Post-Emergence Protocol; conditions: Ipomoea, post-emergence, 312 h; for pest or weed control at 15.625 g/ha: 15.625 g ai/ha, evaluated after 13 days (100=total damage to plant; 0=no damage to plant), read-out: Morningglory, Ivy-leaved damage rating; for pest or weed control at 62.5 g/ha: 62.5 g ai/ha, read-out: Morningglory, Ivy-leaved damage rating (100=total damage to plant; 0=no damage to plant); for pest or weed control at 62.5 g/ha / pest or weed control at 250 g/ha: evaluated after 13 days; for pest or weed control at 250 g/ha: 250 g ai/ha, read-out: damage to plant, Morningglory, Ivy-leaved (100=total damage to plant; 0=no damage to plant)
Method in brief: as §2

[11] = test system: redroot pigweed (Amaranthus retroflexus); experiment: Test G Post-Emergence Protocol; conditions: Amaranthus retroflexus, post-emergence, 312 h; for pest or weed control at 15.625 g/ha: 15.625 g ai/ha, evaluated after 13 days (100=total damage to plant; 0=no damage to plant), read-out: Pigweed, Redroot damage rating; for pest or weed control at 62.5 g/ha: 62.5 g ai/ha, read-out: Pigweed, Redroot damage rating (100=total damage to plant; 0=no damage to plant); for pest or weed control at 62.5 g/ha / pest or weed control at 250 g/ha: evaluated after 13 days; for pest or weed control at 250 g/ha: 250 g ai/ha, read-out: damage to plant, Pigweed, Redroot (100=total damage to plant; 0=no damage to plant)
Method in brief: as §2

[12] = test system: velvetleaf (Abutilon theophrasti); experiment: Test G Post-Emergence Protocol; conditions: Abutilon theophrasti, post-emergence, 312 h; for pest or weed control at 15.625 g/ha: 15.625 g ai/ha, evaluated after 13 days (100=total damage to plant; 0=no damage to plant), read-out: Velvetleaf damage rating; for pest or weed control at 62.5 g/ha: 62.5 g ai/ha, read-out: Velvetleaf damage rating (100=total damage to plant; 0=no damage to plant); for pest or weed control at 62.5 g/ha / pest or weed control at 250 g/ha: evaluated after 13 days; for pest or weed control at 250 g/ha: 250 g ai/ha, read-out: damage to plant, Velvetleaf (100=total damage to plant; 0=no damage to plant)
Method in brief: as §2

| Compound | pest or weed control at 15.625 g/ha [1] [%] | pest or weed control at 62.5 g/ha [1] [%] | pest or weed control at 250 g/ha [1] [%] | plant injury at 15.625 g/ha (corn (Zea mays) [2]) [%] | plant injury at 62.5 g/ha (corn (Zea mays) [2]) [%] | plant injury at 250 g/ha (corn (Zea mays) [2]) [%] | pest or weed control at 15.625 g/ha [3] [%] | pest or weed control at 62.5 g/ha [3] [%] | pest or weed control at 250 g/ha [3] [%] | pest or weed control at 15.625 g/ha [4] [%] | pest or weed control at 62.5 g/ha [4] [%] | pest or weed control at 250 g/ha [4] [%] | pest or weed control at 15.625 g/ha [5] [%] | pest or weed control at 62.5 g/ha [5] [%] | pest or weed control at 250 g/ha [5] [%] | pest or weed control at 15.625 g/ha [6] [%] | pest or weed control at 62.5 g/ha [6] [%] | pest or weed control at 250 g/ha [6] [%] | pest or weed control at 15.625 g/ha [7] [%] | pest or weed control at 62.5 g/ha [7] [%] | also measured |
| --- | --- | --- | --- | --- | --- | --- | --- | --- | --- | --- | --- | --- | --- | --- | --- | --- | --- | --- | --- | --- | --- |
| Cc1ccc(NC(=O)[C@H]2C(=O)N(C)C[C@@H]2c2ccc(C(F)(F)F)cc2)c(C)c1 (racemic) [Compound 1410] | 0 | 0 | 20 | 0 | 0 | 0 | 0 | 0 | 80 | 0 | 0 | 10 | 0 | 20 | 10 | 0 | 10 | 20 | 0 | 0 | pest or weed control at 250 g/ha [7]: 20%; plant injury at 15.625 g/ha (corn (Zea mays) [8]): 0%; plant injury at 62.5 g/ha (corn (Zea mays) [8]): 0%; plant injury at 250 g/ha (corn (Zea mays) [8]): 10%; pest or weed control at 15.625 g/ha [9]: 0%; pest or weed control at 62.5 g/ha [9]: 0%; pest or weed control at 250 g/ha [9]: 50%; pest or weed control at 15.625 g/ha [10]: 0%; pest or weed control at 62.5 g/ha [10]: 0%; pest or weed control at 250 g/ha [10]: 20%; pest or weed control at 15.625 g/ha [11]: 0%; pest or weed control at 62.5 g/ha [11]: 0%; pest or weed control at 250 g/ha [11]: 10%; pest or weed control at 15.625 g/ha [12]: 0%; pest or weed control at 62.5 g/ha [12]: 0%; pest or weed control at 250 g/ha [12]: 0% |
| Cc1nc(NC(=O)[C@@H]2C(=O)N(C)C[C@H]2c2ccc(C(F)(F)F)cc2)ccc1F (racemic) [Compound 1613] | 0 | 0 | 70 | 0 | 0 | 0 | 0 | 50 | 90 | 0 | 0 | 0 | 0 | 0 | 10 | 0 | 0 | 10 | 0 | 20 | pest or weed control at 250 g/ha [7]: 60%; plant injury at 15.625 g/ha (corn (Zea mays) [8]): 0%; plant injury at 62.5 g/ha (corn (Zea mays) [8]): 0%; plant injury at 250 g/ha (corn (Zea mays) [8]): 0%; pest or weed control at 15.625 g/ha [9]: 20%; pest or weed control at 62.5 g/ha [9]: 70%; pest or weed control at 250 g/ha [9]: 80%; pest or weed control at 15.625 g/ha [10]: 0%; pest or weed control at 62.5 g/ha [10]: 0%; pest or weed control at 250 g/ha [10]: 0%; pest or weed control at 15.625 g/ha [11]: 0%; pest or weed control at 62.5 g/ha [11]: 50%; pest or weed control at 250 g/ha [11]: 60%; pest or weed control at 15.625 g/ha [12]: 0%; pest or weed control at 62.5 g/ha [12]: 20%; pest or weed control at 250 g/ha [12]: 30% |
